The structures appear in SMILES notation.

The source of these data is patent US10477864B2, “Microbiocidal quinoline (thio)carboxamide derivatives” (priority 2016, dated 2019).

For series [1], the system named is Glomerella lagenarium (Colletotrichum lagenarium). The series can be described thus: Glomerella lagenarium (Colletotrichum lagenarium) / liquid culture (anthracnose). The settings on record: Colletotrichum orbiculare; read-out: control of Glomerella lagenarium. The series is classed as cell-based.
Series [2] has as its system Monographella nivalis (Microdochium nivale). The series can be described thus: Monographella nivalis (Microdochium nivale) / liquid culture (foot rot cereals). To be noted: 96 h, read-out: control of Monographella nivalis. It counts as cell-based.
Another series relates to Gaeumannomyces graminis. The series can be described thus: Gaeumannomyces graminis / liquid culture (take-all of cereals). It counts as cell-based. To be noted: read-out: control of Gaeumannomyces graminis.
The subject of series [3] is Magnaporthe grisea (Pyricularia oryzae). The series can be described thus: microbe, parasite or virus in culture. It counts as cell-based. The settings on record: 72 h, read-out: control of Magnaporthe grisea.
In series [4] the test system is Botryotinia fuckeliana (Botrytis cinerea). The experiment in a line: Botryotinia fuckeliana (Botrytis cinerea) / liquid culture (gray mould). It counts as cell-based. The settings on record: 72 h, read-out: control of Botryotinia fuckeliana.
The test system of series [5] is Fusarium culmorum. The experiment in a line: microbe, parasite or virus in culture. The series is classed as cell-based. To be noted: read-out: control of Fusarium culmorum.
For series [6], the system named is Fusarium culmorum. The series can be described thus: whole plant or invertebrate. The series is classed as in vivo. To be noted: in Triticum aestivum, read-out: control of Fusarium culmorum.

For the compound `C=C(C)CC(Cc1ccccc1)(NC(=O)c1cnc2c(F)cccc2c1)C1CC1` (stereo not drawn) [Compound E-53, N-(1-benzyl-1-cyclopropyl-3-methyl-but-3-enyl)-8-fluoro-quinoline-3-carboxamide], the inhibition of growth at 200 ppm (in series [1]; in series [2]; in the series with Gaeumannomyces graminis; in series [3]; in series [4]; in the series on Fusarium culmorum [5]) was no less than 80% each time.

Take `CC(C)C[C@](C)(Cc1ccccc1)NC(=O)c1cnc2ccccc2c1` [Compound F-5, N-[(1R)-1-benzyl-1,3-dimethyl-butyl]quinoline-3-carboxamide]: the pest or weed control at 200 ppm in the series on Fusarium culmorum [6] is no less than 80%. Also, the inhibition of growth at 200 ppm (in series [1]; in series [2]; with Gaeumannomyces graminis; in series [4]; with Fusarium culmorum [5]) was no less than 80% throughout.

Broadly, the melting point is the temperature, or range, at which the solid turns liquid. Compound `O=C(NC(CCC(F)(F)F)Cc1ccccc1)c1cnc2c(Cl)cccc2c1` (stereo not drawn) [Compound E-17, N-(1-benzyl-4,4,4-trifluoro-butyl)-8-chloro-quinoline-3-carboxamide] registered a melting point of 163 to 167 °C. In addition, in the series with Fusarium culmorum [6], the pest or weed control at 200 ppm is no less than 80%. Moreover, the inhibition of growth at 200 ppm in the series on Gaeumannomyces graminis was no less than 80%. Besides, in series [3], the inhibition of growth at 200 ppm is no less than 80%. The inhibition of growth at 200 ppm in series [4] is no less than 80%. In the series with Fusarium culmorum [5], the inhibition of growth at 200 ppm was no less than 80%.

Turning to `C=CCC(C)(Cc1ccccc1)NC(=O)c1cnc2ccccc2c1` (stereo not drawn) [Compound E-37, N-(1-benzyl-1-methyl-but-3-enyl)quinoline-3-carboxamide], the inhibition of growth at 200 ppm (in series [1]; in series [2]; in the series with Gaeumannomyces graminis; in series [3]; in series [4]; in the series on Fusarium culmorum [5]) was no less than 80% in each case.

`CC(C)CC(C)(Cc1ccccc1Cl)NC(=O)c1cnc2c(F)cccc2c1` (stereo not drawn) [Compound E-22, N-[1-[(2-chlorophenyl)methyl]-1,3-dimethyl-butyl]-8-fluoro-quinoline-3-carboxamide] had a melting point of 109 to 110 °C. Also, the pest or weed control at 200 ppm in the series with Fusarium culmorum [6] was no less than 80%. Also, the inhibition of growth at 200 ppm in series [1] is no less than 80%. The inhibition of growth at 200 ppm in series [2] is no less than 80%. Moreover, the inhibition of growth at 200 ppm in the series on Gaeumannomyces graminis was no less than 80%. Besides, the inhibition of growth at 200 ppm in series [3] is no less than 80%. In series [4], the inhibition of growth at 200 ppm is no less than 80%. In the series on Fusarium culmorum [5], the inhibition of growth at 200 ppm was no less than 80%.

With `CCCC(C)(Cc1ccccc1)NC(=O)c1cnc2c(F)cccc2c1` (stereo not drawn) [Compound E-42, N-(1-benzyl-1-methyl-butyl)-8-fluoro-quinoline-3-carboxamide], the pest or weed control at 200 ppm in the series with Fusarium culmorum [6] is no less than 80%. Further, the inhibition of growth at 200 ppm (in series [1]; in series [2]; with Gaeumannomyces graminis; in series [3]; in series [4]; in the series on Fusarium culmorum [5]) was no less than 80% in each case.

On to `C=CCC(C)(Cc1ccccc1)NC(=O)c1cnc2c(F)cccc2c1` (stereo not drawn) [Compound E-38, N-(1-benzyl-1-methyl-but-3-enyl)-8-fluoro-quinoline-3-carboxamide], for which, in the series on Fusarium culmorum [6], the pest or weed control at 200 ppm is no less than 80%. Besides, the inhibition of growth at 200 ppm (in series [1]; in series [2]; in the series with Gaeumannomyces graminis; in series [3]; in series [4]; with Fusarium culmorum [5]) was no less than 80% in each case.

For the compound `CC(C)(NC(=O)c1cnc2ccccc2c1)C(C)(C)c1ccccc1F` [Compound E-1, N-[2-(2-fluorophenyl)-1,1,2-trimethyl-propyl]quinoline-3-carboxamide], the pest or weed control at 200 ppm with Fusarium culmorum [6] was no less than 80%. Besides, the inhibition of growth at 200 ppm (in series [1]; in series [2]; with Gaeumannomyces graminis; in series [4]; in the series with Fusarium culmorum [5]) was no less than 80% each time.

In the case of `CCCC(C)(Cc1ccccc1)NC(=O)c1cnc2ccccc2c1` (stereo not drawn) [Compound E-43, N-(1-benzyl-1-methyl-butyl)quinoline-3-carboxamide], the pest or weed control at 200 ppm in the series on Fusarium culmorum [6] was no less than 80%. Moreover, the inhibition of growth at 200 ppm (in series [1]; in series [2]; with Gaeumannomyces graminis; in series [3]; in series [4]; in the series on Fusarium culmorum [5]) was no less than 80% each time.

For `CC(C)CC(C)(Cc1ccccc1F)NC(=O)c1cnc2c(F)cccc2c1` (stereo not drawn) [Compound E-21, 8-fluoro-N-[1-[(2-fluorophenyl)methyl]-1,3-dimethyl-butyl]quinoline-3-carboxamide], the melting point is 105 to 106 °C. Besides, the pest or weed control at 200 ppm with Fusarium culmorum [6] was no less than 80%. Further, the inhibition of growth at 200 ppm in series [1] was no less than 80%. Moreover, the inhibition of growth at 200 ppm in series [2] is no less than 80%. The inhibition of growth at 200 ppm in the series on Gaeumannomyces graminis is no less than 80%. Moreover, the inhibition of growth at 200 ppm in series [3] was no less than 80%. In series [4], the inhibition of growth at 200 ppm was no less than 80%. Further, in the series with Fusarium culmorum [5], the inhibition of growth at 200 ppm was no less than 80%.

The compound `CC(C)CC(C)(Cc1cccc(Br)c1)NC(=O)c1cnc2c(F)cccc2c1` (stereo not drawn) [Compound E-45, N-[1-[(3-bromophenyl)methyl]-1,3-dimethyl-butyl]-8-fluoro-quinoline-3-carboxamide] had a melting point of 87 to 89 °C. Further, in series [1], the inhibition of growth at 200 ppm was no less than 80%. Also, in series [2], the inhibition of growth at 200 ppm is no less than 80%. For the same compound, the inhibition of growth at 200 ppm in the series on Gaeumannomyces graminis was no less than 80%. Moreover, the inhibition of growth at 200 ppm in series [3] was no less than 80%. Moreover, the inhibition of growth at 200 ppm in series [4] was no less than 80%. Moreover, the inhibition of growth at 200 ppm in the series on Fusarium culmorum [5] is no less than 80%.

As for `CC(C)(C)C[C@@](C)(Cc1ccccc1)NC(=O)c1cnc2c(F)cccc2c1` [Compound F-18, N-[(1S)-1-benzyl-1,3,3-trimethyl-butyl]-8-fluoro-quinoline-3-carboxamide], the pest or weed control at 200 ppm in the series on Fusarium culmorum [6] is no less than 80%. In addition, the inhibition of growth at 200 ppm (in series [1]; in series [2]; with Gaeumannomyces graminis; in series [4]; with Fusarium culmorum [5]) was no less than 80% each time.

Regarding `CC(C)CC(C)(Cc1cccc(C#N)c1)NC(=O)c1cnc2c(F)cccc2c1` (stereo not drawn) [Compound E-46, N-[1-[(3-cyanophenyl)methyl]-1,3-dimethyl-butyl]-8-fluoro-quinoline-3-carboxamide], the melting point is 45 to 46 °C. The inhibition of growth at 200 ppm in series [1] is no less than 80%. Besides, the inhibition of growth at 200 ppm in the series on Gaeumannomyces graminis is no less than 80%. Also, the inhibition of growth at 200 ppm in series [3] was no less than 80%. Also, the inhibition of growth at 200 ppm in series [4] is no less than 80%. Further, the inhibition of growth at 200 ppm with Fusarium culmorum [5] was no less than 80%.

Regarding `CC(C)CC(C)(Cc1ccccc1)NC(=O)c1cnc2cc(F)ccc2c1` (stereo not drawn) [Compound E-40, N-(1-benzyl-1,3-dimethyl-butyl)-7-fluoro-quinoline-3-carboxamide], the melting point fell in the range of 142 to 144 °C. Moreover, the inhibition of growth at 200 ppm in series [1] was no less than 80%. In addition, in the series on Gaeumannomyces graminis, the inhibition of growth at 200 ppm was no less than 80%. The inhibition of growth at 200 ppm in series [3] is no less than 80%. Further, the inhibition of growth at 200 ppm in series [4] was no less than 80%. Further, the inhibition of growth at 200 ppm in the series with Fusarium culmorum [5] was no less than 80%.

Regarding `CC(C)C[C@@H](Cc1ccccc1)NC(=O)c1cnc2c(F)cccc2c1` [Compound F-4, N-[(1S)-1-benzyl-3-methyl-butyl]-8-fluoro-quinoline-3-carboxamide], the pest or weed control at 200 ppm in the series on Fusarium culmorum [6] is no less than 80%. For the same compound, the inhibition of growth at 200 ppm (in series [1]; in series [2]; with Gaeumannomyces graminis; in series [4]; with Fusarium culmorum [5]) was no less than 80% throughout.

`Cc1cccc2cc(C(=O)NC(CCC(F)(F)F)Cc3ccccc3)cnc12` (stereo not drawn) [Compound E-19, N-(1-benzyl-4,4,4-trifluoro-butyl)-8-methyl-quinoline-3-carboxamide] displayed a melting point of 158 to 161 °C. Further, the pest or weed control at 200 ppm with Fusarium culmorum [6] was no less than 80%. Besides, the inhibition of growth at 200 ppm with Gaeumannomyces graminis is no less than 80%. In series [3], the inhibition of growth at 200 ppm was no less than 80%. Besides, in series [4], the inhibition of growth at 200 ppm is no less than 80%. In addition, the inhibition of growth at 200 ppm in the series with Fusarium culmorum [5] is no less than 80%.

In the case of `CC(C)CC(C)(Cc1ccccc1)NC(=O)c1cnc2ccccc2c1` (stereo not drawn) [Compound E-13, N-(1-benzyl-1,3-dimethyl-butyl)quinoline-3-carboxamide], the pest or weed control at 200 ppm with Fusarium culmorum [6] is no less than 80%. Moreover, the inhibition of growth at 200 ppm (in series [1]; in series [2]; in the series with Gaeumannomyces graminis; in series [4]; with Fusarium culmorum [5]) was no less than 80% throughout.

`CC(C)CC(C)(Cc1cccc(Cl)c1)NC(=O)c1cnc2c(F)cccc2c1` (stereo not drawn) [Compound E-27, N-[1-[(3-chlorophenyl)methyl]-1,3-dimethyl-butyl]-8-fluoro-quinoline-3-carboxamide] had a melting point of 41 to 42 °C. In addition, the inhibition of growth at 200 ppm in series [1] was no less than 80%. In series [2], the inhibition of growth at 200 ppm is no less than 80%. Besides, the inhibition of growth at 200 ppm with Gaeumannomyces graminis was no less than 80%. Also, the inhibition of growth at 200 ppm in series [3] is no less than 80%. Besides, in series [4], the inhibition of growth at 200 ppm is no less than 80%. Besides, the inhibition of growth at 200 ppm in the series on Fusarium culmorum [5] is no less than 80%.
